Columns and labels:
CYP3A4 = CYP3A4 (Homo sapiens, UniProt P08684); test: Loss of RX-5902 after incubation with expressed CYP450 isozyme; format: in vitro ADME; conditions: 30-minute incubation with expressed CYP3A4
Experimental: Two in vitro studies were performed to examine the involvement of specific cytochrome P450 (CYP450) isozymes in the in vitro metabolism of RX-5902. In the first study, the loss of RX-5902 was measured after incubation with expressed CYP450 isozymes (1A2, 2A6, 2B6, 2C8, 2C9, 2C19, 2D6, 3A4 and 3A5). […] In the second study, RX-5902 was incubated with pooled human liver microsomes in the presence of CYP450 isozyme-selective chemical inhibitors. The inhibitors tested were selective for 1A2, 2A6, 2B6, 2C8, 2C9, 2C19, 2D6, and 3A4/5.

MC38 murine colon cancer = test: Syngeneic MC38 murine colon cancer model; format: in vivo
Experimental: Following the methods described below, the effect of RX-5902 on tumor growth in a syngeneic model using female C57BL/6 mice with MC38 murine colon cancer was examined. Tumor growth was measured in a treatment group compared to a control (vehicle treated) group (see Table 5 below for dosing schema and treatment regimen).
The present study consisted of five groups (n=10 per group) of female C57BL/6 mice bearing subcutaneous MC38 tumors (mean tumor volume range: 66-68 mm3) on Day (D1) of the study, when dosing began. Vehicle was administered orally (p.o.). RX-5902 was administered p.o. at 84.34 mg/kg (70 mg/kg active dose). Anti-PD-1 (RMP1-14) was administered at 100 μg/animal, intraperitoneally (i.p.). Group 1 mice served as controls and received PBS (vehicle) five days on, two days off for three cycles ((5/2)×3). Group 2 received RX-5902 (5/2)×3. Group 3 received anti-PD-1 twice weekly for two weeks (biwk×2). Group 4 received RX-5902 (5/2)×3 and anti-PD-1 biwk×2. The study endpoint was a tumor volume of 1500 mm^3 or 45 days, whichever came first. Tumor measurements were taken twice weekly until Day 45 with individual animals exiting the study upon reaching the tumor volume endpoint.
Partial treatment outcome was based on percent tumor growth inhibition (% TGI), defined as the percent difference between Day 28, chosen for the TGI analysis, median tumor volumes (MTVs) of treated and control mice. The results were analyzed and were deemed statistically significant at P≤0.05. A treatment that produced at least 60% TGI was considered to have potential therapeutic activity. Additionally, efficacy was determined from tumor growth delay (TGD), a measure of the increase in the median time to endpoint (TTE) in a treatment, compared to the control group. Response was additionally evaluated based on the number of study survivors, partial regression (PR) and complete regression (CR) responses, and logrank significance of differences in survival. Tolerability of the various treatments was assessed by body weight (BW) measurements and frequent observation for clinical symptoms and treatment-related (TR) side effects.

p68 RNA helicase = molecular target: T1, p68 RNA helicase (Homo sapiens, UniProt P17844); test: DARTS target identification (thermolysin protection, Western blot); format: cell-based; conditions: MDA-MB-231 cells treated 0.1-10 μM for one hour
T1 construct: made in house
T1 sequence (P17844 whole entry): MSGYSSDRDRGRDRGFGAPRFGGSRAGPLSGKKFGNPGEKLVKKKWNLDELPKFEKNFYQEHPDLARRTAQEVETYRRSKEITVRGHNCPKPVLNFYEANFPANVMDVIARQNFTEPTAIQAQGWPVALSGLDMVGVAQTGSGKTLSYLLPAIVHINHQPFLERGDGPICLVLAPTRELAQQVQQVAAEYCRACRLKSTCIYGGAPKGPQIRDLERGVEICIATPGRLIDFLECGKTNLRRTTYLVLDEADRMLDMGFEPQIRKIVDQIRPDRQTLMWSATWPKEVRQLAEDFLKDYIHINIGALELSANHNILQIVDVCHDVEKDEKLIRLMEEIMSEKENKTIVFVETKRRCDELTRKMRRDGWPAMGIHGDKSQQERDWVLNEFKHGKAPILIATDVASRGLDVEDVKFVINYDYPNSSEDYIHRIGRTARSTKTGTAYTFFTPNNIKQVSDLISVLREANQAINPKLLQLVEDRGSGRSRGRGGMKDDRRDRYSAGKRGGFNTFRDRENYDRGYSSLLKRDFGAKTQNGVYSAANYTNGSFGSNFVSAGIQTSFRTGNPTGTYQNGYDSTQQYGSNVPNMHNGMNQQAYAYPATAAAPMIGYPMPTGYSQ
Experimental: MDA-MB-231 cells were plated onto 6 well plates and treated with RX-5902 at various concentrations (0, 0.1, 1 and 10 μM) for one hour. Cells were lysed with p-MER buffer containing protease/phosphatase inhibitors on ice. Cell lysates were treated with thermolysin protease (1:1,500 ratio) for 10 min at RT and the reaction was stopped by addition of 0.5 M EDTA solution. The reaction mixtures were separated on a 10% SDS-PAGE visualized by Coomassie staining. After identifying several candidate proteins from mass spectrometry sequencing analysis, the protein which interacted with RX-5902 was confirmed by western blot analysis.
Protein mix or cell lysates were separated by SDS-PAGE and transferred to PVDF membrane. The membrane was blocked by blocking buffer (1×TBST containing 5% BSA) at room temperature for 1 hour. After a brief wash, the membrane was incubated with primary antibody in blocking buffer at 4° C. overnight. […]
Well-established target identification method DARTS assay (Lomenick et al., Proc. Natl. Acad. Sci. USA, 106:21984-21989 (2009)) was used to find target proteins that would interact with RX-5902 in cancer cells. […] To identify this protected protein, the bands along with control were sliced out, and analyzed with LC-MS/MS by ProtTech (Phoenixville, Pa.). […]

SK-MEL-28 cells = test: Western blot of cyclin D1, c-Myc and p-c-Jun; format: cell-based
Experimental: (§1) MDA-MB-231, SK-MEL-28, and WI-38 cells were obtained from ATCC (Manassas, Va., USA) and were cultured according to the vendor's instructions. Anti-p68 antibody and antiY593-p68 antibody were purchased from Cell Signaling (Danvers, Mass.) and Abcam (Cambridge, Mass.), respectively. Antibodies against β-actin, cyclin D1, p-c-Jun and c-Myc, were purchased from Santa Cruz (Dallas, Tex.). Anti-phospho-tyrosine antibody and HRP conjugated GAPDH antibody were obtained from Cell Signaling (Danvers, Mass.). Recombinant β-catenin and p68 protein were purchased from Creative Biomart (Shirley, N.Y.) and Origene (Rockville, Md.), respectively.
(§2) RX-5902 was dissolved in DMSO to prepare a stock solution of 2 mM. The stock solution was stored at −20° C. and diluted with medium to prepare working concentrations.
(§3) Protein mix or cell lysates were separated by SDS-PAGE and transferred to PVDF membrane. The membrane was blocked by blocking buffer (1×TBST containing 5% BSA) at room temperature for 1 hour. After a brief wash, the membrane was incubated with primary antibody in blocking buffer at 4° C. overnight. After incubation in primary antibody, the membrane was washed with 1×TBST three times and subsequently incubated with HRP conjugated secondary antibody in blocking buffer at room temperature for 1 hour. The membrane was again washed three times and visualized by ECL system (Thermo Scientific, Rockford, Ill.).
(§4) Since RX-5902 directly binds to Y593 phospho-p68, it was hypothesized that treatment of cells with RX-5902 would interfere with the phospho-p68/β-catenin interaction and consequently affect the expression of several growth associated genes, including p-c-Jun, c-Myc and cyclin D, which are regulated by phospho-p68/β-catenin interaction. Thus, cyclin D1 and c-Myc expression, as well as phosphorylation of c-Jun in cells treated with RX-5902, were analyzed. Cancer cell lines, SK-MEL-28 and MDA-MB-231, and normal fetal lung fibroblasts, WI-38, were used.

WI-38 cells = test: Western blot of cyclin D1, c-Myc and p-c-Jun; format: cell-based; conditions: even at 70 nM
Experimental: as §1, §2, §3, §4

CYP3A4, sequence (P08684 whole entry): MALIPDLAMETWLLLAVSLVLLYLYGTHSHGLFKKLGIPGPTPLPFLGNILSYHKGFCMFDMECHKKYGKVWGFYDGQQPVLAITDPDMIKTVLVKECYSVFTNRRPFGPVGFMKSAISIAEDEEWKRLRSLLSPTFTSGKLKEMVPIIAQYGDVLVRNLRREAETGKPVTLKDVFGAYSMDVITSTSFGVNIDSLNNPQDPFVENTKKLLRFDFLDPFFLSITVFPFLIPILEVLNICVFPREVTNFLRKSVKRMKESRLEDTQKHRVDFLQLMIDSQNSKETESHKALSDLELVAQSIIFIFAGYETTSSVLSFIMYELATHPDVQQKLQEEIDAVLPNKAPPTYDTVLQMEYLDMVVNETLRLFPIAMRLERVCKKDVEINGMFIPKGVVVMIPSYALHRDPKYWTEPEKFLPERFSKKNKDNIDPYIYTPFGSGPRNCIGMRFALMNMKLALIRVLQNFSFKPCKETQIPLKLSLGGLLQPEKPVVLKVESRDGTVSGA

COc1cc(OC)cc(N2CCN(C(=O)Nc3nc4cc(F)ccc4nc3OC)CC2)c1 [RX-5902, 4-(3,5-dimethoxyphenyl)-N-(7-fluoro-3-methoxyquinoxalin-2-yl)piperazine-1-carboxamide]
loss of RX-5902 (CYP3A4): 87% | TGD (MC38 murine colon cancer; 45-day study, maximum possible 52%, RX-5902 84.34 mg/kg po (5/2)x3, anti-PD-1 100 μg/animal ip biwk x2): 51% | median TTE (MC38 murine colon cancer; 45-day study, RX-5902 84.34 mg/kg po (5/2)x3, anti-PD-1 100 μg/animal ip biwk x2): 44.8 days | % TGI (MC38 murine colon cancer; Day 28, RX-5902 84.34 mg/kg po (5/2)x3, anti-PD-1 100 μg/animal ip biwk x2): 90% | MTV on D45 (MC38 murine colon cancer; median tumor volume of survivors): 14 mm^3 | partial regressions (PR) (MC38 murine colon cancer; n=10 per group): three | survivors on D45 (MC38 murine colon cancer; n=10 per group): Five | protection of ~60 kDa band (p68 RNA helicase) from protease (p68 RNA helicase): protected from the protease cleavage | cyclin D1, c-Myc and p-c-Jun protein levels (SK-MEL-28 cells; 20 nM): did not change protein levels | cyclin D1, c-Myc expression and c-Jun phosphorylation (SK-MEL-28 cells; 70 nM): decrease in expression of both cyclin D1 and c-Myc and a decrease in c-Jun phosphorylation | cyclin D1, c-Myc expression and c-Jun phosphorylation (WI-38 cells): did not result in any significant change

Source: US9969698B2, “Quinoxalinyl-piperazinamide methods of use” (REXAHN PHARMACEUTICALS, INC., priority 2015, dated 2018)
